2 compounds from PMC6910931, “Converging TLR9 and PI3Kgamma signaling induces sterile inflammation and organ damage” (Scientific Reports, 2019) can be followed below.

Entries after “also recorded” stand apart in the source; their conditions may differ.

For experiment [1], the system named is C57BL/6 mice. The experiment can be described thus: APAP-induced liver injury (DILI) model. Format: in vivo. The note with it: for reduction in serum ALT levels: AS605240 20 mg/Kg oral 6 and 12 hours after APAP. As to the method:
Mice were fasted for 15 hours before oral APAP administration (500 mg/Kg) or vehicle (sterile saline). After 24 hours mice were anesthetized for respiratory mechanics analysis (described below) and then killed for blood (serum), liver, bronchoalveolar lavage fluid (BALF), and lung collection. Alanine aminotransferase (ALT) levels were measured in the serum using an enzyme activity test (Bioclin). The myeloperoxidase activity assay was performed as described before. BALF was performed by washing the lungs twice with 1 mL of PBS 10 mM EDTA with a polyethylene cannula 18 G resulting in a total of 2 mL of lavage. Cells were centrifuged and used for total cell count and differential cell count after Romanowsky staining (Panótico Rápido LB)[59]. Fragments of liver and the left lobe of the lungs were fixed and then sectioned for histological analysis (Haematoxylin and Eosin). For the drug-induced liver injury model, mice were orally treated with AS605240 6 and 12 hours after APAP treatment or with n-Acetylcysteine (NAC) 1 hour before APAP or 6 and 12 hours after APAP treatment. AS605240 was diluted in 0,9% Saline + 0.5% CMC + 0.1% Tween 20 and given in a dose of 20 mg/Kg and NAC was diluted in 0.9% saline and given in a dose of 600 mg/Kg.
Animals were anesthetized with a mixture of Ketamine/Xylazine (200 mg/Kg and 15 mg/Kg, respectively) as indicated by Buxco. Dynamic compliance (mL/cm H2O), lung resistance (cm H2O × s/mL) and Forced Expiratory Volume at 100 ms (FEV100) (mL) were assessed in tracheostomized and mechanically ventilated mice using Forced Manoeuvres Platform (Buxco)[53].
(§1) In this study, female C57BL/6 mice from 8 to 12 weeks of age were used in all experiments except for the chimaera mice. Animals were obtained from the UFMG’s Centro de Bioterismo and kept in the Laboratório de Imunofarmacologia with food and water ad libitum and day/night light cycles. For all investigations, mice were humanely sacrificed using an intra-peritoneal overdose of Ketamine/Xylazine at a dose equivalent to at least five times the dose used for anesthetising the mice. The animal studies presented here were registered and approved by the UFMG’s Comitê de Ética em Utilização Animal (CEUA) No. 191/2010 and 51/2011 and all the procedures were performed in accordance with the guidelines of the Conselho Nacional De Controle De Experimentação Animal’s resolution of Brazilian Ministry of Science, Technology, Innovation and Communication.

The test system of experiment [2] is C57BL/6 mice. Nature of the experiment: CpG-induced pleurisy model. The format is in vivo. The settings on record: CpG 750 ng/cavity, 12 hours. As to the method: Animals received one single injection of C-class CpG in the pleural cavity with the indicated dose of agonist. At indicated timepoints, mice were anesthetized intraperitoneally with a mixture of Ketamine/Xylazine and then killed with overdose of intravenous anaesthetic (80 mg/Kg and 15 mg/Kg, respectively). Pleural cavity was washed two times with 1 mL of PBS 10 mM EDTA resulting in a total of 2 mL of lavage. Cells were centrifuged and used for total cell count and differential cell count after Romanowsky staining (Panótico Rápido LB). For the pleurisy model, mice were orally treated with AS605240 twice: 1 h prior the CpG injection and then 6 h after CpG, 20 mg/kg diluted in 0,9% Saline + 0.5% CMC + 0.1% Tween 20.
as §1

Setting [3] is: APAP 500 mg/Kg, AS605240 20 mg/Kg, vs WT mice.

Turning to `CC(=O)N[C@@H](CS)C(=O)O` [NAC, N-acetyl-cysteine], in experiment [1] (NAC 600 mg/Kg 6 and 12 hours after APAP, 24 h), the “serum ALT levels, therapeutic treatment” value is reported as “not able to reduce ALT levels; also recorded: no impact”. Also, the “serum ALT levels, prophylactic treatment” value in experiment [1] (NAC 600 mg/Kg 1 hour before APAP, 24 h) is “completely abrogated the rise of ALT levels”.
For `O=C1NC(=O)/C(=C\c2ccc3nccnc3c2)S1` [AS605240], the “lung remote damage (histological score of lung)” value in experiment [1] (APAP 500 mg/Kg, AS605240 20 mg/Kg) is listed as “reduce lung remote damage”. Moreover, in experiment [1] (APAP 500 mg/Kg, 24 h), the “reduction in serum ALT levels” value was “approximately 50%”. The “reduction in serum ALT levels” value in experiment [1] (APAP 500 mg/Kg, 24 h, listed as AS650240) was determined as 50%. In addition, in experiment [1] (setting [3]), the “ALT levels in the serum” value is “lower levels of ALT in the serum”, the “MPO levels in the liver” value is on record as “lower MPO levels in the liver” and the “areas of necrotic tissue in the liver” value is “less areas of necrotic tissue”. Further, in experiment [2] (AS605240 20 mg/kg oral), the “migration of mononuclear cells into the pleural cavity” value is “lower effect” and the “neutrophil recruitment into the pleural cavity” value is recorded as “reduced neutrophil recruitment”. Besides, the “total leukocytes recruited into the pleural cavity” value in experiment [2] (AS605240 20 mg/kg oral 1 h prior and 6 h after CpG, vs untreated WT) is “less leukocytes recruited into the pleural cavity”.
